Measurements: patent publication US10758549B2, “Compositions of obeticholic acid and methods of use” (Intercept Pharmaceuticals, Inc., priority 2015, dated 2020)
≈ marks a conversion by molar mass, not a printed value.

Tests used:
[1] = molecular target: T1, farnesoid X receptor (FXR) (Homo sapiens, UniProt Q96RI1); conditions: FXR agonism; cited from earlier work
T1 sequence (Q96RI1 1-486): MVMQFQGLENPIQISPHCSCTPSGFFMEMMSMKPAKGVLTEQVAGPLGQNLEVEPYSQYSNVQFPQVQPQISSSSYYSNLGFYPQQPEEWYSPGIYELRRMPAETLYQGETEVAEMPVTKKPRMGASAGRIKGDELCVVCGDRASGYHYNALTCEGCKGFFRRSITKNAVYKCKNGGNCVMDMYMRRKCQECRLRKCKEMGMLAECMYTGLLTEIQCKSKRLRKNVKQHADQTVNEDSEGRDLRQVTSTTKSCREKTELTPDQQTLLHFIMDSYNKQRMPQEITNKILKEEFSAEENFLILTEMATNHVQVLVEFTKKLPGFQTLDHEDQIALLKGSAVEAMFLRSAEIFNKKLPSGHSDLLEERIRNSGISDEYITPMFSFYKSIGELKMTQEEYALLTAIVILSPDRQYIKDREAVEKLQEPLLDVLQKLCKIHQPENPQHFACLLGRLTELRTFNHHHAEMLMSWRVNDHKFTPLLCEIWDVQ

CYP2C8 = molecular target: T2, CYP2C8 (Homo sapiens, UniProt P10632); test: In vitro studies: CYP inhibition; format: in vitro ADME
T2 sequence (P10632 1-490): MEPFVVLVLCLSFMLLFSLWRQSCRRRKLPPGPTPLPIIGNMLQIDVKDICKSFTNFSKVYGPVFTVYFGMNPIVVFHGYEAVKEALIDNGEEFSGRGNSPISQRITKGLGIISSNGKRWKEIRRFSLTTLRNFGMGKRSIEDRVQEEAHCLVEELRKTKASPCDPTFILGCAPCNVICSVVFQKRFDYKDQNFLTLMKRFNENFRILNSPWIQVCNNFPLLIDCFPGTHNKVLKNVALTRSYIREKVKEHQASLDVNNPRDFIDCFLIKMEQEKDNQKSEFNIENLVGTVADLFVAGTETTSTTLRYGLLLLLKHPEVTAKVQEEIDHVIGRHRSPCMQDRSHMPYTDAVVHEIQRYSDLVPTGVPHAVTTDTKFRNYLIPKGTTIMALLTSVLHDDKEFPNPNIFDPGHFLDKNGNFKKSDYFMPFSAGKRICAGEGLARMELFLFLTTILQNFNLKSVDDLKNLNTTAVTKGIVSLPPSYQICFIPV

PBC patients = test: Example 7: 12-week placebo-controlled OCA monotherapy study (10 mg, 50 mg) in PBC; format: in vivo, human; conditions: for ALP Change from Baseline to Day 85/ET, Mean / ALP Level at Day 85/ET, Mean / ALP Level at Day 85/ET, Median / Percent Change in ALP from Baseline to EOS, Mean (SD) / Percent Change in ALP from Baseline to EOS, Median / GGT level at Day 85/ET, mean (SD): ITT
Protocol: This example describes a study of two doses of OCA (10 mg and 50 mg) vs. placebo for a period of 12 weeks (85 days). The study was completed by 48 patients and PK data are available for 34 patients. All patients returned to the study site for 4 visits (Day 15, Day 29, Day 57, and Day 85) for evaluations of efficacy, safety, tolerability, and compliance with investigational product.
Key Exclusion Criteria • 1. The following drugs were contraindicated: ursodeoxycholic acid (UDCA), colchicine, methotrexate, azathioprine, or systemic corticosteroids • 2. Conjugated bilirubin>2×ULN; ALT or AST>5×ULN and serum creatinine>133 μmol/L (1.5 mg/dL) • 3. History or presence of hepatic decompensation • 4. History of presence of concomitant liver diseases such as Hepatitis B or C; HIV; primary sclerosing cholangitis, alcoholic liver disease, definite autoimmune liver disease or biopsy proven nonalcoholic steatohepatitis (NASH).
The percent change (%) in serum ALP from Baseline to End of Study (EOS) was monitored. The baseline value was the mean of the pretreatment screening and day 0 evaluations. The EOS value was Day 85/ET or the last observed ALP value on treatment.
Absolute changes in serum ALP levels were monitored from Baseline to Day 15, Day 29, Day 57, Day 85/ET and Follow-Up (Day 99). The percentage of patients was calculated who met the definition of PBC responder criteria applying the Paris I, Toronto I, Toronto II, Toronto III, Toronto IV, Mayo II, and Barcelona disease prognostic risk criteria at Day 85/ET. Each patient was tested for absolute and percent change in serum aspartate aminotransferase (AST), alanine aminotransferase (ALT), gamma-glutamyl transferase (GGT), and conjugated (direct) bilirubin values from Baseline to Day 15, Day 29, Day 57, Day 85/ET and Follow-Up (Day 99).

[2] = Solubility of OCA in biologically relevant media at 37° C.; format: physicochemical; conditions: for solubility: physiologically relevant dissolution media
Excerpt: Solubility Studies of OCA in Biological Media.

Surface area by BET = format: physicochemical
Protocol: The impact of jet-milling on API particle size and surface area is detailed in Table 4-1 and Table 4-2, respectively. Surface area was tested per a BET (Brunauer, Emmett, and Teller theory). The BET method for analyzing surface area is based on adsorption of gas on a surface. The amount of gas adsorbed at a given pressure allows a determination of the surface area.

inhibition of CYP2C8 (CYP2C8): not an inhibitor
mean change in LDL-C at Day 85/ET (PBC patients; OCA 10 mg): +0.10 (0.58) mmol/L
HDL-C at end of treatment (ET), mean (SD) (PBC patients; OCA 10 mg, baseline 1.73 (0.45) mmol/L): 1.57 (0.46) mmol/L
mean change in LDL-C at Day 85/ET (PBC patients; OCA 50 mg): +0.23 (0.52) mmol/L
HDL-C at end of treatment (ET), mean (SD) (PBC patients; OCA 50 mg, baseline 1.95 (0.55) mmol/L): 1.86 (0.56) mmol/L
dropout rate (PBC patients; OCA 50 mg, early in treatment (<1 month)): 44%
USP Solubility Rating ([2]; pH 1.2 (0.1N HCl)): Practically insoluble
Solubility (mg/mL) ([2]; pH 1.2 (0.1N HCl), 37° C.): <LOQ
USP Solubility Rating ([2]; pH 1.2 (FaSSGF)): Practically insoluble
Solubility (mg/mL) ([2]; pH 1.2 (FaSSGF), 37° C.): <LOQ
USP Solubility Rating ([2]; pH 4.5): Practically insoluble
Solubility (mg/mL) ([2]; pH 4.5, 37° C.): <LOQ
USP Solubility Rating ([2]; pH 5.0 (FeSSIF)): Freely soluble
increase in OCA solubility ([2]; pH 5.0 with taurocholate and lecithin (FeSSIF) vs. pH 5.1 acetate buffer alone): 35 fold
USP Solubility Rating ([2]; pH 6.5 (FaSSIF)): Freely soluble
USP Solubility Rating ([2]; pH 6.8): Freely soluble
USP Solubility Rating ([2]; pH 6.8 with surfactant): Freely soluble
solubility ([2]; aqueous buffer, pH 6.8 (proposed dissolution medium, sodium phosphate dibasic), 37° C.): 220 µg/mL (≈ 523 µM)
solubility ([2]; aqueous with cosolvent or surfactant or cyclodextrin, pH 6.8 with surfactant (polysorbate 80), 37° C.): 590 µg/mL (≈ 1400 µM)
solubility ([2]; pH 5.0 (FeSSIF), 37° C.): 820 µg/mL (≈ 1950 µM)
solubility ([2]; pH 6.5 (FaSSIF), 37° C.): 640 µg/mL (≈ 1520 µM)
surface area increase after jet-milling (Surface area by BET): approximately 3 fold
SMILES: CC[C@H]1[C@@H](O)[C@@H]2[C@H](CC[C@]3(C)[C@@H]([C@H](C)CCC(=O)O)CC[C@@H]23)[C@@]2(C)CC[C@@H](O)C[C@@H]12 [OCA, 3α,7α-dihydroxy-6α-ethyl-5β-cholan-24-oic acid]
potency compared to CDCA [1]: approximately 100 fold
ALP Change from Baseline to Day 85/ET, Mean (PBC patients; OCA 10 mg (n = 20)): −233.5 U/L
ALP Level at Day 85/ET, Mean (PBC patients; OCA 10 mg (n = 20)): 228.1 U/L
ALP Level at Day 85/ET, Median (PBC patients; OCA 10 mg (n = 20)): 196.5 U/L
Percent Change in ALP from Baseline to EOS, Mean (SD) (PBC patients; OCA 10 mg (n = 20)): −44.5 (24.4) %
Percent Change in ALP from Baseline to EOS, Median (PBC patients; OCA 10 mg (n = 20)): −53.9%
GGT level at Day 85/ET, mean (SD) (PBC patients; OCA 10 mg, baseline 653 (370) U/L): 184 (203) U/L
AST level at Day 85/ET, mean (SD) (PBC patients; OCA 10 mg, baseline 67 (33) U/L): 54 (40) U/L
ALT level at Day 85/ET, mean (SD) (PBC patients; OCA 10 mg, baseline 86 (44) U/L): 54 (41) U/L
ALP Change from Baseline to Day 85/ET, Mean (PBC patients; OCA 50 mg (n = 16)): −161.3 U/L
ALP Level at Day 85/ET, Mean (PBC patients; OCA 50 mg (n = 16)): 269.8 U/L
ALP Level at Day 85/ET, Median (PBC patients; OCA 50 mg (n = 16)): 197.5 U/L
Percent Change in ALP from Baseline to EOS, Mean (SD) (PBC patients; OCA 50 mg (n = 16)): −37.6 (21.0) %
Percent Change in ALP from Baseline to EOS, Median (PBC patients; OCA 50 mg (n = 16)): −37.2%
GGT level at Day 85/ET, mean (SD) (PBC patients; OCA 50 mg, baseline 455 (418) U/L): 202 (300) U/L
AST level at Day 85/ET, mean (SD) (PBC patients; OCA 50 mg, baseline 66 (29) U/L): 56 (28) U/L
ALT level at Day 85/ET, mean (SD) (PBC patients; OCA 50 mg, baseline 71 (38) U/L): 49 (29) U/L
ALP reduction, on average (PBC patients; each OCA dose (10 mg and 50 mg monotherapy), early stage PBC): approximately 40%
